The values that follow come from patent US20160008366A1, “BTK INHIBITORS FOR THE TREATMENT OF CNS MALIGNANCIES” (Pharmacyclics LLC, priority 2014, published 2016).

Data set [1] can be described thus: Quantification of PCI-32765 (ibrutinib) and its metabolite PCI-45227 in human cerebrospinal fluid samples of patient 01-001BF (LC-MS/MS). The data set is classed as in vivo. To be noted: for observed in CSF samples: patient 01-001BF after 560 mg of ibrutinib daily; for Calculated Concentration in CSF: patient 01-001BF, ibrutinib 560 mg daily. The protocol: Samples were obtained from patient (01-001BF), a person with Waldenstrom's macroglobulinemia with amyloid and Bing-Neel syndrome.
Standards and QC sample preparation and data analysis were carried out using the methods described in Example 1. In brief, all samples and standards were prepared on ice. Internal standard (IS) was prepared by addition of d5-PCI-32765 and d5-PCI-45227 in 0.2% formic acid in 1:9 (v/v) water: ACN (acetonitrile).
A100 μL of either a sample or a standard was transferred into each well of a 96-well plate. To each well was added 20 μL of the internal standard solution. […] Next, the 96-well plate was capped and vortexed thoroughly and then centrifuged at 4000 rpm for at least 10 minutes at 4° C.
High performance liquid chromatography (HPLC) (Shimadzu Nexera X2 HPLC system) was coupled with an electrospray ionization triple quadrupole mass spectrometer (AB SCIEX API-6500), and an autosampler (CTC PAL Eksigent). Chromatographic separation was achieved using an XBridge™ Ethylene-Bridged Hybrid (BEH) C18 column, 3.5 μm (2.1×50 mm) (Waters), and a C 18 guard column (2×4 mm) (Phenomenex Security Guard). Mobile phase A was 0.1% formic acid in water and mobile phase B was 100% acetonitrile. In all conditions, the column temperature was at ambient, the autosampler temperature was at 4° C., and the injection volume was 10 μL. The diversion time from HPLC to MS was from 0.5 minutes to 2.5 minutes.
The mass spectrometer (MS) equipped with an ESI source, was operated at a source temperature of 700° C.

Data set [2] in a line: CSF and plasma concentration ratios for ibrutinib and PCI-45227, patient 01-001BF. The format is in vivo, human. The settings on record: ibrutinib 560 mg daily; for Kp: human, CSF/plasma, 560 mg daily.
Data set [3] can be described thus: Adsorption test in human CSF to Nunc CryoTube vials. The data set is classed as physicochemical. The settings on record: incubated for 1 h on ice, Low and High QC. An excerpt:
These QC samples were kept in Nunc CryoTube vials for one hour. After an hour, each sample was vortex mixed and assayed against freshly prepared calibration standards. The obtained concentrations of the adsorption test QC samples were compared to the nominal values. The samples were considered to have no adsorption to the Nunc CryoTube vials if the mean value of the obtained concentrations was within 20% of the nominal concentration.

The nature of data set [4]: Short-term storage stability in human CSF at −70±5° C. The data set is classed as in vitro ADME. The settings on record: −70±5° C. for at least 7 days, n=6.
A short description of data set [5]: QC samples bench-top (ice) stability in human CSF. To be noted: nominal 0.500 ng/mL, on ice for 2 hours, n=6. The data set is classed as in vitro ADME.
Data set [6] in a line: QC samples freeze (−70° C.)/thaw (on ice) stability in human CSF. The data set is classed as in vitro ADME. To be noted: nominal 0.500 ng/mL, 3 freeze/thaw cycles, n=6. The protocol:
QC samples stored at −70° C., which were subjected to 3 freeze/thaw (ice) cycles, were measured against freshly prepared calibration standards.

For data set [7] the following is noted: cited from earlier work.
The mark [8] stands for this setting: Day 1, pre-dose (0 h), BQL = below quantification limit (0.3 ng/mL).

Each structure is given as a SMILES string. Marks after values point to notes of the source that are not given here.

As for `C=CC(=O)N1CCC[C@@H](n2nc(-c3ccc(Oc4ccccc4)cc3)c3c(N)ncnc32)C1` [PCI-32765, (R)-1-(3-(4-amino-3-(4-phenoxyphenyl)-1H-pyrazolo[3,4-d]pyrimidin-1-yl)piperidin-1-yl)prop-2-en-1-one], the “observed in CSF samples” value in data set [1] is on record as “observed”. The “Calculated Concentration in CSF” value in data set [1] (1 Month, 3 h) is recorded as 7.19 ng/mL; in data set [1] (Day 1, 2 h), 15.0 ng/mL; in data set [1] (setting [8]) it was “BQL”; in data set [1] (Day 1, pre-dose (0 h), BQL = below quantification limit (0.3 ng/mL), listed as Ibrutinib), “BQL^a”. Besides, the Kp in data set [2] (1 Month, 3 h) came out at 0.035; in data set [2] (Day 1, 2 h), 0.03. In addition, the “adsorption to Nunc Cryo Tube vials” value in data set [3] is reported as “no adsorption”.
For `Nc1ncnc2c1c(-c1ccc(Oc3ccccc3)cc1)nn2[C@@H]1CCCN(C(=O)C(O)CO)C1` (stereo partly drawn) [PCI-45227], the “observed in CSF samples” value in data set [1] is “observed”. The “Calculated Concentration in CSF” value in data set [1] (1 Month, 3 h) was 15.4 ng/mL. Besides, the “Calculated Concentration in CSF” value in data set [1] (Day 1, 2 h) is recorded as 14.7 ng/mL. The “Calculated Concentration in CSF” value in data set [1] (setting [8]) is “BQL and BQL^a”. Moreover, in data set [4] (nominal 0.500 ng/mL), the “Intra-run QC Low, % Accuracy” value turned out to be 99.4% and the “Intra-run QC Low, Mean” value amounted to 0.497 ng/mL. For the same molecule, in data set [4] (nominal 5.00 ng/mL), the “Intra-run QC Mid, % Accuracy” value is listed as 87.8% and the “Intra-run QC Mid, Mean” value is 4.39 ng/mL. Besides, in data set [5], the “Bench-top QC Low Concentration, Mean” value turned out to be 0.458 ng/mL and the “Bench-top QC Low, % Accuracy” value came out at 91.5%. Moreover, in data set [6], the “F/T3 (−70° C.) Low QC, % Accuracy” value is on record as 97.2% and the “F/T3 (−70° C.) Low QC, Mean” value was 0.486 ng/mL. Further, the “reported percentage of unbound of the compounds in plasma” value in data set [7] is 9%. Moreover, in data set [2] (1 Month, 3 h), the “% CSF/Plasma” value is reported as 8.5%. The “% CSF/Plasma” value in data set [2] (Day 1, 2 h) worked out at 6.2%. In data set [3], the “adsorption to Nunc Cryo Tube vials” value is “no adsorption”.
